Data set [1] relates to HIV-1 (IIIB). Briefly: Antiviral assay in MT-4 cells. Format: cell-based. The conditions noted are these: Human immunodeficiency virus 1, MT4, 120 h; HIV-1 IIIB in MT-4 cells, 5 days incubation, Cell Titer Glo; read-out: MT4 EC50. A digest of the protocol: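 Read-out: CellTiter-Glo luminescence after 5 days at 37 °C, reflecting survival of MT-4 cells infected with HIV-1 IIIB (1:250 fresh stock dilution) versus mock-infected. Compounds serially diluted into RPMI with 10% FBS; AZT at 5 μM served as positive control.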
A general note: In ATP-based viability assays light output follows the ATP content of the culture.

Data set [2] can be described thus: Cytotoxicity assay in MT-4 cells. The format is cell-based. As to conditions: human; uninfected MT-4 cells, 5 days incubation, Cell Titer Glo; read-out: MT4 CC50. The method in brief: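 Viability read by Cell Titer Glo luminescence after 5 days at 37 °C. MT-4 cells, not infected, in complete RPMI (10% FBS), received compound dilution series. Base cytotoxicity set with […] puromycin.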

The term EC50 denotes the concentration at which the effect is half-maximal. Broadly, the CC50 is the concentration at which the toxic effect on the cells reaches its halfway point. Turning to `CCCCCCCCCCCC(=O)OCOc1c2n(cc(C(=O)NCc3ccc(F)cc3F)c1=O)[C@@H]1CN(C2=O)[C@@H](C)CC[C@]12CC(OC)=NO2` [Example 101, (((3′S,5S,7′R)-10′-((2,4-difluorobenzyl)carbamoyl)-3-methoxy-3′-methyl-1′,11′-dioxo-1′,4′,5′,11′-tetrahydro-3′H,4H,7′H-spiro[isoxazole-5,6′-[2,7]methanopyrido[1,2-a][1,4]diazonin]-12′-yl)oxy)methyl dodecanoate], in data set [1], the EC50 was determined as 0.00579 µM. Also, the cytotoxic concentration (CC50) at 5 days in data set [2] is not below 50 µM.

On to `CCCCCCCCCCCC(=O)OCOc1c2n(cc(C(=O)NCc3ccc(F)cc3F)c1=O)[C@@H]1CN(C2=O)[C@@H](C)CC[C@]12CC(C)=NO2` [Example 102, (((3′S,5S,7′R)-10′-((2,4-difluorobenzyl)carbamoyl)-3,3′-dimethyl-1′,11′-dioxo-1′,4′,5′,11′-tetrahydro-3′H,4H,7′H-spiro[isoxazole-5,6′-[2,7]methanopyrido[1,2-a][1,4]diazonin]-12′-yl)oxy)methyl dodecanoate], for which the half-maximal effective concentration (EC50) in data set [1] worked out at 0.00496 µM. Besides, the CC50 at 5 days in data set [2] was not below 50 µM.

`CCCCCCCCCCCCCCCC(=O)OCOc1c2n(cc(C(=O)NCc3ccc(F)cc3F)c1=O)[C@@H]1CN(C2=O)[C@@H](C)CC[C@]12CC(OC)=NO2` [Example 104, (((3′S,5S,7′R)-10′-((2,4-difluorobenzyl)carbamoyl)-3-methoxy-3′-methyl-1′,11′-dioxo-1′,4′,5′,11′-tetrahydro-3′H,4H,7′H-spiro[isoxazole-5,6′-[2,7]methanopyrido[1,2-a][1,4]diazonin]-12′-yl)oxy)methyl palmitate]: the EC50 in data set [1] was determined as 0.0117 µM. The half-maximal cytotoxic concentration (CC50) at 5 days in data set [2] was not below 50 µM.

For the molecule `CCCCCCCCCCCCCCCC(=O)OCOc1c2n(cc(C(=O)NCc3ccc(F)cc3F)c1=O)[C@@H]1CN(C2=O)[C@@H](C)CC[C@]12CC(C)=NO2` [Example 105, (((3′S,5S,7′R)-10′-((2,4-difluorobenzyl)carbamoyl)-3,3′-dimethyl-1′,11′-dioxo-1′,4′,5′,11′-tetrahydro-3′H,4H,7′H-spiro[isoxazole-5,6′-[2,7]methanopyrido[1,2-a][1,4]diazonin]-12′-yl)oxy)methyl palmitate], the half-maximal effective concentration (EC50) in data set [1] came out at 0.0225 µM. Further, the 50% cytotoxic concentration (CC50) at 5 days in data set [2] was not below 50 µM.

Take `CCCCCCCCCCCCCCCCCC(=O)OCOc1c2n(cc(C(=O)NCc3ccc(F)cc3F)c1=O)[C@@H]1CN(C2=O)[C@@H](C)CC[C@]12CC(OC)=NO2` [Example 106, (((3′S,5S,7′R)-10′-((2,4-difluorobenzyl)carbamoyl)-3-methoxy-3′-methyl-1′,11′-dioxo-1′,4′,5′,11′-tetrahydro-3′H,4H,7′H-spiro[isoxazole-5,6′-[2,7]methanopyrido[1,2-a][1,4]diazonin]-12′-yl)oxy)methyl stearate]: the EC50 in data set [1] is 0.0272 µM. In data set [2], the CC50 at 5 days is not below 50 µM.

As for `CCCCCCCCCCCCCCCCCC(=O)OCOc1c2n(cc(C(=O)NCc3ccc(F)cc3F)c1=O)[C@@H]1CN(C2=O)[C@@H](C)CC[C@]12CC(C)=NO2` [Example 107, (((3′S,5S,7′R)-10′-((2,4-difluorobenzyl)carbamoyl)-3,3′-dimethyl-1′,11′-dioxo-1′,4′,5′,11′-tetrahydro-3′H,4H,7′H-spiro[isoxazole-5,6′-[2,7]methanopyrido[1,2-a][1,4]diazonin]-12′-yl)oxy)methyl stearate], in data set [1], the EC50 stood at 0.0323 µM. The half-maximal cytotoxic concentration (CC50) at 5 days in data set [2] was not below 50 µM.

Consider `COC1=NO[C@@]2(CC[C@H](C)N3C[C@H]2n2cc(C(=O)NCc4ccc(F)cc4F)c(=O)c(OCOC(=O)CC(C)C)c2C3=O)C1` [Example 110, (((3′S,5S,7′R)-10′-((2,4-difluorobenzyl)carbamoyl)-3-methoxy-3′-methyl-1′,11′-dioxo-1′,4′,5′,11′-tetrahydro-3′H,4H,7′H-spiro[isoxazole-5,6′-[2,7]methanopyrido[1,2-a][1,4]diazonin]-12′-yl)oxy)methyl 3-methylbutanoate], for which the EC50 in data set [1] turned out to be 0.0015 µM. The CC50 at 5 days in data set [2] was 16.4 µM.

Consider `CC1=NO[C@@]2(CC[C@H](C)N3C[C@H]2n2cc(C(=O)NCc4ccc(F)cc4F)c(=O)c(OCOC(=O)CC(C)C)c2C3=O)C1` [Example 111, (((3′S,5S,7′R)-10′-((2,4-difluorobenzyl)carbamoyl)-3,3′-dimethyl-1′,11′-dioxo-1′,4′,5′,11′-tetrahydro-3′H,4H,7′H-spiro[isoxazole-5,6′-[2,7]methanopyrido[1,2-a][1,4]diazonin]-12′-yl)oxy)methyl 3-methylbutanoate], for which the EC50 in data set [1] came out at 0.00195 µM. For the same molecule, the 50% cytotoxic concentration (CC50) at 5 days in data set [2] was 13.8 µM.

Regarding `COC1=NO[C@@]2(CC[C@H](C)N3C[C@H]2n2cc(C(=O)NCc4ccc(F)cc4F)c(=O)c(OCOC(=O)CCCC(C)C)c2C3=O)C1` [Example 113, (((3′S,5S,7′R)-10′-((2,4-difluorobenzyl)carbamoyl)-3-methoxy-3′-methyl-1′,11′-dioxo-1′,4′,5′,11′-tetrahydro-3′H,4H,7′H-spiro[isoxazole-5,6′-[2,7]methanopyrido[1,2-a][1,4]diazonin]-12′-yl)oxy)methyl 5-methylhexanoate], the 50% effective concentration (EC50) in data set [1] worked out at 0.00178 µM. Further, the half-maximal cytotoxic concentration (CC50) at 5 days in data set [2] is 20.3 µM.

As to `COC1=NO[C@@]2(CC[C@H](C)N3C[C@H]2n2cc(C(=O)NCc4ccc(F)cc4F)c(=O)c(OCOC(=O)CCCCC(C)C)c2C3=O)C1` [Example 114, (((3′S,5S,7′R)-10′-((2,4-difluorobenzyl)carbamoyl)-3-methoxy-3′-methyl-1′,11′-dioxo-1′,4′,5′,11′-tetrahydro-3′H,4H,7′H-spiro[isoxazole-5,6′-[2,7]methanopyrido[1,2-a][1,4]diazonin]-12′-yl)oxy)methyl 6-methylheptanoate], the EC50 in data set [1] turned out to be 0.00389 µM. Besides, the CC50 at 5 days in data set [2] stood at 19.7 µM.

Turning to `CC1=NO[C@@]2(CC[C@H](C)N3C[C@H]2n2cc(C(=O)NCc4ccc(F)cc4F)c(=O)c(OCOC(=O)CCCCC(C)C)c2C3=O)C1` [Example 115, (((3′S,5S,7′R)-10′-((2,4-difluorobenzyl)carbamoyl)-3,3′-dimethyl-1′,11′-dioxo-1′,4′,5′,11′-tetrahydro-3′H,4H,7′H-spiro[isoxazole-5,6′-[2,7]methanopyrido[1,2-a][1,4]diazonin]-12′-yl)oxy)methyl 6-methylheptanoate], the half-maximal effective concentration (EC50) in data set [1] came out at 0.00363 µM. Further, the half-maximal cytotoxic concentration (CC50) at 5 days in data set [2] is 16.2 µM.

On to `COC1=NO[C@@]2(CC[C@H](C)N3C[C@H]2n2cc(C(=O)NCc4ccc(F)cc4F)c(=O)c(OCOC(=O)CCCCCC(C)C)c2C3=O)C1` [Example 116, (((3′S,5S,7′R)-10′-((2,4-difluorobenzyl)carbamoyl)-3-methoxy-3′-methyl-1′,11′-dioxo-1′,4′,5′,11′-tetrahydro-3′H,4H,7′H-spiro[isoxazole-5,6′-[2,7]methanopyrido[1,2-a][1,4]diazonin]-12′-yl)oxy)methyl 7-methyloctanoate], for which the EC50 in data set [1] was 0.00417 µM. Besides, the CC50 at 5 days in data set [2] was determined as 27.2 µM.

As to `CC1=NO[C@@]2(CC[C@H](C)N3C[C@H]2n2cc(C(=O)NCc4ccc(F)cc4F)c(=O)c(OCOC(=O)CCCCCC(C)C)c2C3=O)C1` [Example 117, (((3′S,5S,7′R)-10′-((2,4-difluorobenzyl)carbamoyl)-3,3′-dimethyl-1′,11′-dioxo-1′,4′,5′,11′-tetrahydro-3′H,4H,7′H-spiro[isoxazole-5,6′-[2,7]methanopyrido[1,2-a][1,4]diazonin]-12′-yl)oxy)methyl 7-methyloctanoate], the 50% effective concentration (EC50) in data set [1] was determined as 0.00284 µM. Besides, in data set [2], the CC50 at 5 days is not below 50 µM.

Regarding `CC1=NO[C@@]2(CC[C@H](C)N3C[C@H]2n2cc(C(=O)NCc4ccc(F)cc4F)c(=O)c(OCOC(=O)CCCC(C)C)c2C3=O)C1` [Example 118], the EC50 in data set [1] is 0.00219 µM. The half-maximal cytotoxic concentration (CC50) at 5 days in data set [2] was determined as 18.2 µM.

Turning to `COC1=NO[C@@]2(CC[C@H](C)N3C[C@H]2n2cc(C(=O)NCc4ccc(F)cc4F)c(=O)c(OCOC(=O)CCCCCCC(C)C)c2C3=O)C1` [Example 119, (((3′S,5S,7′R)-10′-((2,4-difluorobenzyl)carbamoyl)-3-methoxy-3′-methyl-1′,11′-dioxo-1′,4′,5′,11′-tetrahydro-3′H,4H,7′H-spiro[isoxazole-5,6′-[2,7]methanopyrido[1,2-a][1,4]diazonin]-12′-yl)oxy)methyl 8-methylnonanoate], the EC50 in data set [1] is 0.00287 µM. Also, in data set [2], the CC50 at 5 days was 43.8 µM.

In the case of `CC1=NO[C@@]2(CC[C@H](C)N3C[C@H]2n2cc(C(=O)NCc4ccc(F)cc4F)c(=O)c(OCOC(=O)CCCCCCC(C)C)c2C3=O)C1` [Example 120, (((3′S,5S,7′R)-10′-((2,4-difluorobenzyl)carbamoyl)-3,3′-dimethyl-1′,11′-dioxo-1′,4′,5′,11′-tetrahydro-3′H,4H,7′H-spiro[isoxazole-5,6′-[2,7]methanopyrido[1,2-a][1,4]diazonin]-12′-yl)oxy)methyl 8-methylnonanoate], the EC50 in data set [1] is 0.00204 µM. Besides, the CC50 at 5 days in data set [2] was 42.3 µM.

Take `COC(=O)Oc1c2n(cc(C(=O)NCc3ccc(F)cc3F)c1=O)[C@@H]1CN(C2=O)[C@@H](C)CC[C@]12CC(C)=NO2` [Example 121, (3′S,5S,7′R)-10′-((2,4-difluorobenzyl)carbamoyl)-3,3′-dimethyl-1′,11′-dioxo-1′,4′,5′,11′-tetrahydro-3′H,4H,7′H-spiro[isoxazole-5,6′-[2,7]methanopyrido[1,2-a][1,4]diazonin]-12′-yl methyl carbonate]: the 50% effective concentration (EC50) in data set [1] came to 0.00117 µM. In data set [2], the CC50 at 5 days was determined as 18.9 µM.

Values taken from patent US20250122219A1 (priority 2023, published 2025).
